Laboratory results taken from patent publication US20230227466A1, “SUBSTITUTED THIENOPYRIMIDINES THAT INTERACT WITH THE RAS SUPERFAMILY FOR THE TREATMENT OF CANCERS, INFLAMMATORY DISEASES, RASOPATHIES, AND FIBROTIC DISEASE” (SHY Therapeutics, LLC, priority 2020, published 2023).
Read-outs that look alike come from different tables or passages of the source.

Assays:
KRas wild type = KRas wild type (Homo sapiens, UniProt P01116); assay: Ras GTP binding domain inhibition assay (labeled-GTP competition, cell-free); parameters: made in house
Description: (§1) This is a competitive binding assay. It involves the immobilization of a protein on solid phase, interaction with a small molecule drug candidate, and then competitive binding with a labeled native GTP or GDP ligand.
(§2) In theory, the assay is suitable for use with any GTP or GDP binding protein.
(§3) The following method was developed as specific assay for the following proteins: KRas wild type, KRas Q61H mutant, KRas G12C mutant, KRas G12D mutant, Rac-1, and Rho-A.
(§4) The small GTPases proteins: KRas wild type. KRas Q61H mutant, KRas G12C mutant, KRas G12D mutants, Rac-1, and Rho-A were expressed as His-tagged proteins. In addition, the Guanosine nucleotide Exchange Factor (GEF) Sos protein (residues 556-1049) was expressed as a His-tagged protein. In cells, the guanine nucleotide exchange factor Sos protein promotes activation of Ras proteins by stimulating an exchange of GDP for GTP. The inclusion of Sos to the Ras GTP binding domain inhibition assay may be considered as an alternative representation of physiological cellular conditions for evaluating the inhibitory activity of some of the tested small molecules.
(§5) For the assay, all purified small GTPases proteins were diluted in Buffer-I or Buffer-II to a final concentration of 10-30 μg/mL. 200 μL of each diluted protein was added to a nickel-coated 96-well plate and incubated overnight at 4° C. Then the protein solution was discarded and 200 μL of Buffer-I or Buffer-II was added to each well in the presence of 1% DMSO. Compounds to be tested were added to the protein-coated wells at final concentration of 20 μM, and incubated for 3 hours at room temperature with and without 10-30 μg/mL of Sos added to the final hour of the incubation. When performing IC50 measurements a serial dilution of all tested concentrations was added. Then Cy3-GTP or Cy5-GTP was added to each well to a final concentration of 100 nM. The labeled GTP was incubated for 45 minutes at room temperature. Following GTP incubation, wells were washed 3× in Buffer-I or Buffer-II and 200 μL of Buffer-I or Buffer-II was added to each well. Following washes, the amount of bound labeled-GTP was measured using a SpectraMax M3 (Molecular Devices).

Rho-A = Rho-A (Homo sapiens, UniProt P61586); assay: as above; parameters: made in house
Description: as §1, §2, §3, §4, §5

Rac-1 = Rac-1 (Homo sapiens, UniProt P63000); assay: as above; parameters: made in house
Description: as §1, §2, §3, §4, §5

[1] = test system: MIA-PaCa-2 pancreatic cancer cell line (KRAS G12C); assay: Cell proliferation assay (CellTiter 96 Aqueous One); type: cell-based; conditions: Homo sapiens; for IC50: MIA PaCa-2, MIA PaCa-2; for inhibition at 10 µM: MIA PaCa-2, read-out: % inh cell proliferation (10 μM) in MIA PaCa-2
Method: Cell lines: Human tumor-derived cell lines were purchased from American Type Culture Collection. Human tumor-derived pancreatic cancer cell line MIA-PACA2 (having a KRAS G12C mutation) and Panc-1 (having a KRAS G12D mutation), and Human non-small cell lung cancer (NSCLC) cell line A549 (having a KRAS G12S mutation) were grown in complete DMEM-High Glucose. Human colon cancer cell line SW-620 (having a KRAS G12V mutation) was grown in RPMI. All cell lines were supplemented with penicillin (100 U/mL), streptomycin (100 μg/mL), and 10% heat-inactivated FBS at 37° C. in a humidified incubator with 5% CO2.
Method: Cells were plated at 2000 to 5000 cells/well density in 96-wells plate and cultured overnight. Small molecules to be tested were added to the cells in the final concentration of 10 μM in the presence of 0.3% DMSO and 10% FBS, and incubated for 2-4 days at 37° C. in a humidified incubator with 5% CO2. For IC50 value determination, serial dilutions of compounds were added to cells under the same conditions.
Assay: At the end of the incubation period, cell viability was measured using the CellTiter 96® Aqueous One Solution Cell Proliferation Assay according to manufacturer specifications (Promega, Madison, Wis.). The percentage of small molecules inhibition of cellular proliferation was calculated from raw data.

KRas Q61H mutant = biological target: T1, KRas Q61H mutant (Homo sapiens, UniProt P01116, Q61H); assay: Ras GTP binding domain inhibition assay (labeled-GTP competition, cell-free)
T1 construct: made in house
Description: as §1, §2, §3, §4, §5

KRas G12C mutant = biological target: T2, KRas G12C mutant (Homo sapiens, UniProt P01116, G12C); assay: as above
T2 construct: made in house
Description: as §1, §2, §3, §4, §5

KRas G12D mutant = biological target: T3, KRas G12D mutant (Homo sapiens, UniProt P01116, G12D); assay: as above
T3 construct: made in house
Description: as §1, §2, §3, §4, §5

[2] = with SOS, read-out: KRas wild type + SOS: % inh.
[3] = without SOS, read-out: KRas wild type: % inh.
[4] = with SOS, read-out: Rho-A + SOS: % inh.
[5] = without SOS, read-out: Rho-A: % inh.
[6] = with SOS, read-out: Rac-1 + SOS: % inh.
[7] = without SOS, read-out: Rac-1: % inh.
[8] = with SOS, read-out: KRas Q61H mutant + SOS: % inh.
[9] = without SOS, read-out: KRas Q61H mutant: % inh.
[10] = with SOS, read-out: KRas G12C mutant + SOS: % inh.
[11] = without SOS, read-out: KRas G12C mutant: % inh.
[12] = with SOS, read-out: KRas G12D mutant + SOS: % inh.
[13] = without SOS, read-out: KRas G12D mutant: % inh.

Row | SMILES | inhibition at 20 µM (KRas wild type; [2]) | inhibition at 20 µM (KRas wild type; [3]) | inhibition at 20 µM (Rho-A; [4]) | inhibition at 20 µM (Rho-A; [5]) | inhibition at 20 µM (Rac-1; [6]) | inhibition at 20 µM (Rac-1; [7]) | IC50 [1] | inhibition at 10 µM [1] | inhibition at 20 µM (KRas Q61H mutant; [8]) | inhibition at 20 µM (KRas Q61H mutant; [9]) | IC50 (KRas Q61H mutant; with SOS) | inhibition at 20 µM (KRas G12C mutant; [10]) | inhibition at 20 µM (KRas G12C mutant; [11]) | inhibition at 20 µM (KRas G12D mutant; [12]) | inhibition at 20 µM (KRas G12D mutant; [13])
1 | COCCn1ccnc1-c1nc(N[C@@H]2CC[C@H](OC)C2)c2c(-c3ccccc3)c(-c3ccn(C)n3)sc2n1 (racemic) [Compound 6, Rac-N-((1R,3S)-3-methoxycyclopentyl)-2-(1-(2-methoxyethyl)-1H-imidazol-2-yl)-6-(1-methyl-1H-pyrazol-3-yl)-5-phenylthieno[2,3-d]pyrimidin-4-amine] | 76 to 100% | 76 to 100% | 76 to 100% | 76 to 100% | 76 to 100% | 76 to 100% | 1 to 4.99 µM | 76 to 100% | 76 to 100% | 76 to 100% | 1 to 4.99 µM | 76 to 100% | 76 to 100% | 76 to 100% | 76 to 100%
2 | COCCn1ccnc1-c1nc(N[C@@H]2CC[C@H](OC)C2)c2ccsc2n1 (racemic) [Compound 8, Rac-N-((1R,3S)-3-methoxycyclopentyl)-2-(1-(2-methoxyethyl)-1H-imidazol-2-yl)thieno[2,3-d]pyrimidin-4-amine] | 76 to 100% | 76 to 100% | 76 to 100% | 76 to 100% | 76 to 100% | 76 to 100% | > 10 µM | 26 to 50% | 76 to 100% | 76 to 100% | 1 to 4.99 µM | 76 to 100% | 76 to 100% | 76 to 100% | 76 to 100%
3 | CO[C@@H]1CC[C@H]1CNc1nc(-c2nccn2C)nc2sc(-c3ccn(C(C)C)n3)c(C)c12 (racemic) [Compound 61, rac-6-(1-Isopropyl-1H-pyrazol-3-yl)-N-(((1S,2R)-2-methoxycyclobutyl)methyl)-5-methyl-2-(1-methyl-1H-imidazol-2-yl)thieno[2,3-d]pyrimidin-4-amine] | 76 to 100% | 76 to 100% | – | 51 to 75% | – | 26 to 50% | < 1 µM | 76 to 100% | 76 to 100% | 76 to 100% | – | 76 to 100% | 51 to 75% | – | –
4 | CO[C@H]1CC[C@@H](Nc2nc(-c3nccn3C)nc3sc(-c4ccn(C(C)C)n4)c(C(F)(F)F)c23)C1 (racemic) [Compound 73, Rac-6-(1-isopropyl-1H-pyrazol-3-yl)-N-((1R,3S)-3-methoxycyclopentyl)-2-(1-methyl-1H-imidazol-2-yl)-5-(trifluoromethyl)thieno[2,3-d]pyrimidin-4-amine] | 76 to 100% | 1 to 25% | – | 51 to 75% | – | 1 to 25% | 1 to 4.99 µM | 76 to 100% | 51 to 75% | 51 to 75% | – | 76 to 100% | 1 to 25% | – | –
5 | COCC1CCN(c2nc(-c3nccn3C)nc3sc(-c4ccn(C(C)C)n4)c(C(F)(F)F)c23)C1 (racemic) [Compound 74, Rac-6-(1-Isopropyl-1H-pyrazol-3-yl)-4-(3-(methoxymethyl)pyrrolidin-1-yl)-2-(1-methyl-1H-imidazol-2-yl)-5-(trifluoromethyl)thieno[2,3-d]pyrimidine] | 76 to 100% | 26 to 50% | – | 51 to 75% | – | 1 to 25% | < 1 µM | 76 to 100% | 51 to 75% | 51 to 75% | – | 51 to 75% | 1 to 25% | – | –
6 | COC1CCCN(c2nc(-c3nccn3C)nc3sc(-c4ccn(C(C)C)n4)c(C(F)(F)F)c23)C1 (racemic) [Compound 75, Rac-6-(1-Isopropyl-1H-pyrazol-3-yl)-4-(3-methoxypiperidin-1-yl)-2-(1-methyl-1H-imidazol-2-yl)-5-(trifluoromethyl)thieno[2,3-d]pyrimidine] | 51 to 75% | 26 to 50% | – | 51 to 75% | – | 1 to 25% | 5 to 10 µM | 76 to 100% | 26 to 50% | 51 to 75% | – | 51 to 75% | 26 to 50% | – | –
7 | Cc1c(-c2ccn(C(C)C)n2)sc2nc(-c3nccn3C)nc(NCc3c[nH]cn3)c12 [Compound 59, N-((1H-Imidazol-4-yl)methyl)-6-(1-isopropyl-1H-pyrazol-3-yl)-5-methyl-2-(1-methyl-1H-imidazol-2-yl)thieno[2,3-d]pyrimidin-4-amine] | 76 to 100% | 26 to 50% | – | 51 to 75% | – | 51 to 75% | 5 to 10 µM | 51 to 75% | 76 to 100% | 51 to 75% | – | 76 to 100% | 51 to 75% | – | –
8 | Cc1c(-c2ccn(C(C)C)n2)sc2nc(-c3nccn3C)nc(NCc3n[nH]c(=O)n3C)c12 [Compound 60, 5-(((6-(1-Isopropyl-1H-pyrazol-3-yl)-5-methyl-2-(1-methyl-1H-imidazol-2-yl)thieno[2,3-d]pyrimidin-4-yl)amino)methyl)-4-methyl-2,4-dihydro-3H-1,2,4-triazol-3-one] | 51 to 75% | 51 to 75% | – | 76 to 100% | – | 51 to 75% | > 10 µM | 1 to 25% | 51 to 75% | 51 to 75% | – | 51 to 75% | 26 to 50% | – | –
9 | COc1cccc(Nc2nc(-c3nccn3C)nc3sc(-c4ccn(C(C)C)n4)c(C)c23)c1 [Compound 64, 6-(1-Isopropyl-1H-pyrazol-3-yl)-N-(3-methoxyphenyl)-5-methyl-2-(1-methyl-1H-imidazol-2-yl)thieno[2,3-d]pyrimidin-4-amine] | 76 to 100% | 0% | – | 26 to 50% | – | 26 to 50% | 5 to 10 µM | 76 to 100% | 76 to 100% | 26 to 50% | – | 76 to 100% | 26 to 50% | – | –
